In ChEMBL document CHEMBL5291721, “A preclinical secondary pharmacology resource illuminates target-adverse drug reaction associations of marketed drugs” (Nat Commun, 2023):

Key:
Adenosine receptor A3 = target: T1, Adenosine receptor A3 (Homo sapiens, UniProt P0DMS8)
T1 sequence (P0DMS8 whole entry): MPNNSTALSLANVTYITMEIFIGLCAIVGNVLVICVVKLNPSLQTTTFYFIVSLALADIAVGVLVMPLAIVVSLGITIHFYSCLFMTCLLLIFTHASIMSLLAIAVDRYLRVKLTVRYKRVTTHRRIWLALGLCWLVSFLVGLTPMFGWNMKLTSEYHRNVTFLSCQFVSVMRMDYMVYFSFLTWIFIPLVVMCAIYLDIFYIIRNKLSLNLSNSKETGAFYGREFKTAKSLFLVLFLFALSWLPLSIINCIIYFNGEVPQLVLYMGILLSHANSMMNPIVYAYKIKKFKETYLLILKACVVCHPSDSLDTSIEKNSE

[1] = target: Voltage-dependent L-type calcium channel subunit alpha-1C (Rattus norvegicus, UniProt P22002); type: functional
Chain of Voltage-dependent L-type calcium channel subunit alpha-1C (P22002 whole entry): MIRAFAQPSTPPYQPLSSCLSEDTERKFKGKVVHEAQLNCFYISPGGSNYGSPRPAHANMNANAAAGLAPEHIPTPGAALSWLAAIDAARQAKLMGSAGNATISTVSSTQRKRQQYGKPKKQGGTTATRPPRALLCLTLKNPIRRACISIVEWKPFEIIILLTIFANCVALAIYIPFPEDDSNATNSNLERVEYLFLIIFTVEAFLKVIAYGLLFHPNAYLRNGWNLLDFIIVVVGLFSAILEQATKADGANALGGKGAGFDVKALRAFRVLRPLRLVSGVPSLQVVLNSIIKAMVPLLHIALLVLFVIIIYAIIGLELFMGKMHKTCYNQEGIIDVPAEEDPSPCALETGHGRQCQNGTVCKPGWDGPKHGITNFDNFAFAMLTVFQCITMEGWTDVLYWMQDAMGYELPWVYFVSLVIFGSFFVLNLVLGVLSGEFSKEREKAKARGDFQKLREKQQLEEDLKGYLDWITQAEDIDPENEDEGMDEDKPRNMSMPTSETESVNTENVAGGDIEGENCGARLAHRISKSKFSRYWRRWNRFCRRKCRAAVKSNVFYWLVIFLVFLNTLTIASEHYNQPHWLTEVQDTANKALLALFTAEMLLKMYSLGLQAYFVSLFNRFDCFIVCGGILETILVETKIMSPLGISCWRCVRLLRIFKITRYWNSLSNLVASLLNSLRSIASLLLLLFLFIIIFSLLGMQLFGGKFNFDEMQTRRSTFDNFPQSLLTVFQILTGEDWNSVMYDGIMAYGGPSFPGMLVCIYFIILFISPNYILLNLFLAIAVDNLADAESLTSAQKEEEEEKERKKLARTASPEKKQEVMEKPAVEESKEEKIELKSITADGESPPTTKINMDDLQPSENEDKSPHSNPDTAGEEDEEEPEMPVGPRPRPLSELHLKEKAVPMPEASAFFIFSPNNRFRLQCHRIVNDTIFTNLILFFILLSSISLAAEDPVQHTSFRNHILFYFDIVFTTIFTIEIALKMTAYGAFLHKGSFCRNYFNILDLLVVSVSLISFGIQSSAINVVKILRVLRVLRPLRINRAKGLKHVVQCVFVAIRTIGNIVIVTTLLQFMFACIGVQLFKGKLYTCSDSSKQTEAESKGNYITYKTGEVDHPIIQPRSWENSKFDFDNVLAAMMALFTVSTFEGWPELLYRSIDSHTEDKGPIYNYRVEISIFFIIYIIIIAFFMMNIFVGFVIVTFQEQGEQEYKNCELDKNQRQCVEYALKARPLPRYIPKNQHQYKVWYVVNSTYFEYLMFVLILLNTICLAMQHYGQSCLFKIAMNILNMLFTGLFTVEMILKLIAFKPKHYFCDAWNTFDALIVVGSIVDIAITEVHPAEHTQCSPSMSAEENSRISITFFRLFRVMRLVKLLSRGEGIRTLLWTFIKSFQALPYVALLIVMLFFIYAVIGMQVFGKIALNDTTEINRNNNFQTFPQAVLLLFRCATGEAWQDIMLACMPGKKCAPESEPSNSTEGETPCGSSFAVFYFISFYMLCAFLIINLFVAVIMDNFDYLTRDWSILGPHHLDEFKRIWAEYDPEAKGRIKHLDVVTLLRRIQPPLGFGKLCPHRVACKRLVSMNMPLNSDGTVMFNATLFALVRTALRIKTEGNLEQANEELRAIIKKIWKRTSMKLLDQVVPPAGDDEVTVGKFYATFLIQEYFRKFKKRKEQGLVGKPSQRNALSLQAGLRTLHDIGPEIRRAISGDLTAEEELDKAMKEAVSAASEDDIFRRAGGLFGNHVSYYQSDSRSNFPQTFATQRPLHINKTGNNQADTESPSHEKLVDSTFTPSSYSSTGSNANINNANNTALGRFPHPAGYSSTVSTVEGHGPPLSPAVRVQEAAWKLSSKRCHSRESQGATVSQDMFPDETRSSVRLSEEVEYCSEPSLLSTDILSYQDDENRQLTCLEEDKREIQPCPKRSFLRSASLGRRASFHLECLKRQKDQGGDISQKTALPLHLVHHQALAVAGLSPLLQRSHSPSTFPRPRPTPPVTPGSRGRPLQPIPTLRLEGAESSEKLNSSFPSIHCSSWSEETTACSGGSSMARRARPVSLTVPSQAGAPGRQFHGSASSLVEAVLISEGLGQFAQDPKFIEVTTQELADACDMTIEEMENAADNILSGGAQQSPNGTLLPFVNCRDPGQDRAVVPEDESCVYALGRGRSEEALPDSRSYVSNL

[2] = target: T2, Muscarinic acetylcholine receptor M1 (Homo sapiens, UniProt P11229); type: functional, cell-based
T2 sequence (P11229 whole entry): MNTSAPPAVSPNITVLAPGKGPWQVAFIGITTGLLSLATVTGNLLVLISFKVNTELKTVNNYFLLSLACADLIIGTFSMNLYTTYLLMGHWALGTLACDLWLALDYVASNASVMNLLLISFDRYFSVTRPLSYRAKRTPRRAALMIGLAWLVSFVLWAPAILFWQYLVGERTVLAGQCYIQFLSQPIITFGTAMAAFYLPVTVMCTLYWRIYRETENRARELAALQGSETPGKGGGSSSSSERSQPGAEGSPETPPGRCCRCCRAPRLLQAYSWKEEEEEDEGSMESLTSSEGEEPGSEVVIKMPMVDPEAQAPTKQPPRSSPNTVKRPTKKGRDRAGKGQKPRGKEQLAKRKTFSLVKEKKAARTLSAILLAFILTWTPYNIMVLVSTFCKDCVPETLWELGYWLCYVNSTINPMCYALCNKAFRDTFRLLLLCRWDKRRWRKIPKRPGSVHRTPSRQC

[3] = target: T2, Muscarinic acetylcholine receptor M1; type: functional, cell-based; remark: listed apart in the source
[4] = target: Gamma-aminobutyric acid receptor subunit alpha-1 (Rattus norvegicus, UniProt P62813)
Chain of Gamma-aminobutyric acid receptor subunit alpha-1 (P62813 whole entry): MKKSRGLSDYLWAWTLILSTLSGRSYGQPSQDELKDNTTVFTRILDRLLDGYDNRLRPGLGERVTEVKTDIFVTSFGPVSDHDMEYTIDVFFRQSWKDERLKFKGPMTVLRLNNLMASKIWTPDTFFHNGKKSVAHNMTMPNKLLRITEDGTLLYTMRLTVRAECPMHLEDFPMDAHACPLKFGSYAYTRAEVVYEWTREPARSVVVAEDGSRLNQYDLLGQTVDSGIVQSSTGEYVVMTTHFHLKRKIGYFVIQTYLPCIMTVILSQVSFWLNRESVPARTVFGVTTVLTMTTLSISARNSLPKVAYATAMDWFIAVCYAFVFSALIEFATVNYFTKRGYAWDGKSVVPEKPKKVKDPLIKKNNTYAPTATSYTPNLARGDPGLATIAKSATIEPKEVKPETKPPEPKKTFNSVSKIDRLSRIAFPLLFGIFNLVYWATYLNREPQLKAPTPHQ

[5] = target: T3, Neuropeptide Y receptor type 1 (Homo sapiens, UniProt P25929)
T3 sequence (P25929 whole entry): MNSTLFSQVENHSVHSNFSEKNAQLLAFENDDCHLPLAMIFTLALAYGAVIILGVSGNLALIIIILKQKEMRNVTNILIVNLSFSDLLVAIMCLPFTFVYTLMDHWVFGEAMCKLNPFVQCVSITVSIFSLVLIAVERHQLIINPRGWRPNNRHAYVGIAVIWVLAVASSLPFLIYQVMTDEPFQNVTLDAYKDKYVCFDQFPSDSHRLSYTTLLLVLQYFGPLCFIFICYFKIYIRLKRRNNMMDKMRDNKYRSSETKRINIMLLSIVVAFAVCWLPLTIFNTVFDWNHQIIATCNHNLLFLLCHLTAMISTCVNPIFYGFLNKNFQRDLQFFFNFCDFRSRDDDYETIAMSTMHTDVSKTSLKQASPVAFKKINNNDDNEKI

[6] = target: 3',5'-cyclic-AMP phosphodiesterase 4A (Homo sapiens, UniProt P27815); type: functional
Chain of 3',5'-cyclic-AMP phosphodiesterase 4A (P27815 whole entry): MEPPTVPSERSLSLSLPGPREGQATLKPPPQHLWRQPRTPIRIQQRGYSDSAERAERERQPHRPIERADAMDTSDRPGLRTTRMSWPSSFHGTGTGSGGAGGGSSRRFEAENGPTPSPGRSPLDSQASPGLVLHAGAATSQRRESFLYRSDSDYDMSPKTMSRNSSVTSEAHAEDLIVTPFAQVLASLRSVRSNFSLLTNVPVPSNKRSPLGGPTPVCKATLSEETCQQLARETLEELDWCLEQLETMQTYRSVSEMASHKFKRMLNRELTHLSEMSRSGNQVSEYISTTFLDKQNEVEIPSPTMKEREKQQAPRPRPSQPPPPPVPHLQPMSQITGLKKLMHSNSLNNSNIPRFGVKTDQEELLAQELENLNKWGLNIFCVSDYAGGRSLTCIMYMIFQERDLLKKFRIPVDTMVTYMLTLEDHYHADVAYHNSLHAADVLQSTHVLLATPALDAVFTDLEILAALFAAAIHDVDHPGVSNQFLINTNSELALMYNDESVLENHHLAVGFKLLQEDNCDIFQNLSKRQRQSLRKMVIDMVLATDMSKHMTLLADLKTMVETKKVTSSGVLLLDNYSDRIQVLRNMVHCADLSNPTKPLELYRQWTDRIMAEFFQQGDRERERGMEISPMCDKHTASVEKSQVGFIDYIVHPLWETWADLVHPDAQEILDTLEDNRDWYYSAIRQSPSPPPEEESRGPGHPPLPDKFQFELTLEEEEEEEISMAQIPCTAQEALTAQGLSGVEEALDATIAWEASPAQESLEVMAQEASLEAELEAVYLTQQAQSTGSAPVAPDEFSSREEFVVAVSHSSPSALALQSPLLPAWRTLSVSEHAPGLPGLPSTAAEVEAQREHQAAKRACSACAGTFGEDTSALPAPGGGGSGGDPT

Progesterone receptor = target: T4, Progesterone receptor (Homo sapiens, UniProt P06401)
T4 sequence (P06401 whole entry): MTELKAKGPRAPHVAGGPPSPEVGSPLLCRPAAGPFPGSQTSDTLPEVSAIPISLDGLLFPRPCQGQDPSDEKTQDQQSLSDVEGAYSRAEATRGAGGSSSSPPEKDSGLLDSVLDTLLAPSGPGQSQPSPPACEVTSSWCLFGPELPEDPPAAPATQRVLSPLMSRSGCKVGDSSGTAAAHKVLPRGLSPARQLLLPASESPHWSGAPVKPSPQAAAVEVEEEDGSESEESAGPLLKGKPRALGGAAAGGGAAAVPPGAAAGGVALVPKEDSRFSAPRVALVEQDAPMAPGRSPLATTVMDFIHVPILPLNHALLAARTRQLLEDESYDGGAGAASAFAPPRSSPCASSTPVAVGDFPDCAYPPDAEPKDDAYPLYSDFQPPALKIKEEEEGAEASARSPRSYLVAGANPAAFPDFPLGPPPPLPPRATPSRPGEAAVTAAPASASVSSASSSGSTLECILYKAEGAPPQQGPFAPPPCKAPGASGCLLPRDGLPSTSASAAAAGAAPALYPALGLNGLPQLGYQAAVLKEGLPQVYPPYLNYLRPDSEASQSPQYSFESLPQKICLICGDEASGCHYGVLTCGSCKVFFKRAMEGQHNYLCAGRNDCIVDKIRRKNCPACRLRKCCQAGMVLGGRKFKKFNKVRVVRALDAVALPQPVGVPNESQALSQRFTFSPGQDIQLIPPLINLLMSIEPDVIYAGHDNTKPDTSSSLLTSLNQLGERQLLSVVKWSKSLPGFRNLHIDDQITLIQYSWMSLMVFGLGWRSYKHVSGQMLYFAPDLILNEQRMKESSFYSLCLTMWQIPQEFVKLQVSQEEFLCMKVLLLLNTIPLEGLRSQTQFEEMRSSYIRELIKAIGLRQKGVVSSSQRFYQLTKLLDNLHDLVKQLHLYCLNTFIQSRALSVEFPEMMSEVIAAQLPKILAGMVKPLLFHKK

[7] = target: T5, Alpha-1A adrenergic receptor (Homo sapiens, UniProt P35348); type: functional, cell-based
T5 sequence (P35348 whole entry): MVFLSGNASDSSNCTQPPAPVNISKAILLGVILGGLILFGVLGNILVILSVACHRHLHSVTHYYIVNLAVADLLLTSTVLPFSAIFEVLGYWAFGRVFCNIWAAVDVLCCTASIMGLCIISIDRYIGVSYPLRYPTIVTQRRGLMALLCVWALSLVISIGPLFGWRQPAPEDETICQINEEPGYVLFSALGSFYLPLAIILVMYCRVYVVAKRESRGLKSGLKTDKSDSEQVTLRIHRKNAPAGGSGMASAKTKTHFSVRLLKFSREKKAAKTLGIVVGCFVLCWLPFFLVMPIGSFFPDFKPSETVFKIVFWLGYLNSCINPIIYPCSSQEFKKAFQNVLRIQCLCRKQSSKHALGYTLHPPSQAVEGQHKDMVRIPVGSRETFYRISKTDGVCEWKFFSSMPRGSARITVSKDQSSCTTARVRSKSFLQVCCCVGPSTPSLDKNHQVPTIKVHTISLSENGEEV
Note: assay procedure not described here.

Compound	AC50 (Adenosine receptor A3)	AC50 [1]	AC50 [2]	AC50 [3]	AC50 [4]	AC50 [5]	AC50 [6]	AC50 (Progesterone receptor)	AC50 [7]
C=CCc1ccccc1OCC(O)CNC(C)C (centres undefined) [ALPRENOLOL]	> 0.3 µM	> 30 µM	> 0.3 µM	> 0.3 µM	> 30 µM	> 30 µM	> 0.3 µM	> 0.3 µM	7.53 µM
O=C(OCC(O)CO)c1ccccc1Nc1ccnc2cc(Cl)ccc12 (centres undefined) [GLAFENINE]	1.4 µM		> 30 µM	7.51 µM			8.3 µM	> 30 µM	> 30 µM
N[C@@H](C(=O)N[C@@H]1C(=O)N2C(C(=O)O)=C(Cl)CC[C@H]12)c1ccccc1 [LORACARBEF ANHYDROUS]	> 30 µM		> 30 µM	> 30 µM			> 30 µM	> 30 µM	
OCCN1C[C@H](O)[C@@H](O)[C@H](O)[C@H]1CO [MIGLITOL]	> 30 µM		> 30 µM	> 30 µM			> 30 µM	> 30 µM	
CC(=O)N[C@@H]1[C@@H](O)[C@H](O)[C@@H](CO)O[C@H]1O [N-ACETYLGLUCOSAMINE]	> 30 µM		> 30 µM	> 30 µM			> 30 µM	> 30 µM	
O=C(CCNNC(=O)c1ccncc1)NCc1ccccc1 [NIALAMIDE]	> 30 µM		> 30 µM	> 30 µM			> 30 µM	> 30 µM	
CC[C@H]1[C@@H](O)[C@@H]2[C@H](CC[C@]3(C)[C@@H]([C@H](C)CCC(=O)O)CC[C@@H]23)[C@@]2(C)CC[C@@H](O)C[C@@H]12 [OBETICHOLIC ACID]	> 30 µM	> 30 µM	> 30 µM	> 30 µM	> 30 µM	> 30 µM	> 30 µM	> 30 µM	6.3 µM
CC[N+]1(C)[C@@H]2CC(OC(=O)[C@H](CO)c3ccccc3)C[C@H]1[C@@H]1O[C@@H]12 (some centres undefined) [OXITROPIUM]	> 30 µM		> 30 µM	0.003 µM			> 30 µM	> 30 µM	
CC(C)(C)NC[C@H](O)COc1ccccc1C1CCCC1 [PENBUTOLOL]	> 30 µM		> 30 µM	13.5 µM			> 10 µM	> 30 µM	
CN(C)S(=O)(=O)c1ccc2c(c1)N(CCCN1CCC(CCO)CC1)c1ccccc1S2 [PIPOTIAZINE]	> 30 µM		> 30 µM	7.84 µM			> 30 µM	> 30 µM	
C=C[C@H]1C[N@@]2CC[C@H]1C[C@H]2[C@H](O)c1ccnc2ccc(OC)cc12 [QUININE]	> 30 µM		> 30 µM	> 30 µM			> 30 µM	> 30 µM	
CCC(=O)NCC[C@@H]1CCc2ccc3c(c21)CCO3 [RAMELTEON]	> 30 µM		> 30 µM	> 30 µM			> 30 µM	> 30 µM	
CCOC(=O)[C@H](CCc1ccccc1)N[C@@H](C)C(=O)N1[C@H](C(=O)O)C[C@H]2CCCC[C@@H]21 [TRANDOLAPRIL]	> 30 µM		> 30 µM	> 30 µM			> 30 µM	> 30 µM	
